PubChem BioAssay AID192 (DTP/NCI, 2004)
Values joined by “and” are separate entries in the source; they are usually repeats but may differ in a detail not shown here. Equal entries are not always repeated. Inconclusive results and toxic doses are left out.

System: BDF1 mice, B16 melanoma ip, median survival T/C
Assay: NCI In Vivo Anticancer Drug Screen. Data for tumor model B16 Melanoma (intraperitoneal) in B6D2F1 (BDF1) mice
Settings: endpoint: median survival time, higher = longer survival
Outline: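 Values are ratios of treated (T) to vehicle-control (C) measurements of survival or tumor size in tumor-bearing mice.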

[1] = dose: 25.0 mg/kg/injection, schedule: Q01DX009 (ip), vehicle: saline
[2] = dose: 100.0 mg/kg/injection, schedule: Q01DX009 (ip), vehicle: Klucel (hydroxypropylcellulose) (HPC)
[3] = dose: 200.0 mg/kg/injection, schedule: Q01DX009 (ip), vehicle: Klucel (hydroxypropylcellulose) (HPC)
[4] = dose: 12.5 mg/kg/injection, schedule: Q01DX009 (ip), vehicle: saline
[5] = dose: 400.0 mg/kg/injection, schedule: Q01DX009 (ip), vehicle: Klucel (hydroxypropylcellulose) (HPC)
[6] = dose: 25.0 mg/kg/injection, schedule: Q01DX009 (ip), vehicle: saline with Tween-80
[7] = dose: 50.0 mg/kg/injection, schedule: Q01DX009 (ip), vehicle: saline with Tween-80
[8] = dose: 100.0 mg/kg/injection, schedule: Q01DX009 (ip), vehicle: saline with Tween-80
[9] = dose: 6.25 mg/kg/injection, schedule: Q01DX009 (ip), vehicle: Klucel (hydroxypropylcellulose) (HPC)
[10] = dose: 25.0 mg/kg/injection, schedule: Q01DX009 (ip), vehicle: Klucel (hydroxypropylcellulose) (HPC)
[11] = dose: 100.0 mg/kg/injection, schedule: Q04DX003 (ip), vehicle: Klucel (hydroxypropylcellulose) (HPC)
[12] = dose: 200.0 mg/kg/injection, schedule: Q04DX003 (ip), vehicle: Klucel (hydroxypropylcellulose) (HPC)
[13] = dose: 400.0 mg/kg/injection, schedule: Q04DX003 (ip), vehicle: Klucel (hydroxypropylcellulose) (HPC)

For CC(C)OCc1c(N)nc(=S)[nH]c1C(=O)O, the T/C [1] was 92 % of control and the T/C (dose: 50.0 mg/kg/injection, schedule: Q01DX009 (ip), vehicle: saline) was 86 % of control.

For CSc1ccc(N=Cc2ccc3c(c2)OCO3)cc1, the T/C [2] was 90 % of control and the T/C [3] was 88 % of control.

COc1cccc(/C=N\N=C\c2cccc(OC)c2OC)c1OC was tested, and the T/C (dose: 6.25 mg/kg/injection, schedule: Q01DX009 (ip), vehicle: saline) was 95 % of control and the T/C [4] was 97 % of control.

CN(C)CCCC(=O)O was tested, and the T/C (dose: 100.0 mg/kg/injection, schedule: Q01DX009 (ip), vehicle: saline) was 98 % of control, the T/C (dose: 200.0 mg/kg/injection, schedule: Q01DX009 (ip), vehicle: saline) was 96 % of control and the T/C (dose: 400.0 mg/kg/injection, schedule: Q01DX009 (ip), vehicle: saline) was 93 % of control.

With CCN1/C(=C/C=C/C=C\C=C\c2sc3ccc4ccccc4c3[n+]2CC)Sc2ccc3ccccc3c21 the T/C (dose: 2.5 mg/kg/injection, schedule: Q01DX009 (ip), vehicle: saline with Tween-80) was 87 % of control, the T/C (dose: 10.0 mg/kg/injection, schedule: Q01DX009 (ip), vehicle: saline with Tween-80) was 115 % of control and the T/C (dose: 20.0 mg/kg/injection, schedule: Q01DX009 (ip), vehicle: saline with Tween-80) was 96 % of control.

For CCCCCCCCCC(=O)CCC, the T/C [2] was 100 % of control, the T/C [3] was 111 % of control and the T/C [5] was 95 % of control.

Clc1ccc(/C(=[C](\[Hg]/[C](=C(\c2ccccc2)c2ccc(Cl)cc2)c2ccccc2)c2ccccc2)c2ccccc2)cc1 was tested, and the T/C [2] was 105 % of control, the T/C [3] was 100 % of control and the T/C [5] was 94 % of control.

For C1CCN(CN2CCCCC2)CC1, the T/C [4] was 97 % of control and the T/C [1] was 93 % of control.

O=C(O)C1CCCN1CCc1ccccc1 (stereo not given) was tested, and the T/C (dose: 100.0 mg/kg/injection, schedule: Q04DX003 (ip), vehicle: saline) was 98 % of control, the T/C (dose: 200.0 mg/kg/injection, schedule: Q04DX003 (ip), vehicle: saline) was 103 % of control and the T/C (dose: 400.0 mg/kg/injection, schedule: Q04DX003 (ip), vehicle: saline) was 102 % of control.

With CS(=O)(=O)OCCC(=O)N1CCN(C(=O)CCOS(C)(=O)=O)CC1 the T/C (dose: 1.56 mg/kg/injection, schedule: Q01DX009 (ip), vehicle: suspension in saline) was 114 % of control, the T/C (dose: 3.12 mg/kg/injection, schedule: Q01DX009 (ip), vehicle: suspension in saline) was 111 % of control and the T/C (dose: 6.25 mg/kg/injection, schedule: Q01DX009 (ip), vehicle: suspension in saline) was 114 % of control. For the same molecule, the T/C (dose: 12.5 mg/kg/injection, schedule: Q01DX009 (ip), vehicle: suspension in saline) was 124 % of control, the T/C [6] was 150 % of control and the T/C [7] was 152 % of control and 170 % of control. The T/C (dose: 50.0 mg/kg/injection, schedule: Q01DX009 (ip), vehicle: suspension in saline) was 171 % of control and the T/C [8] was 160 % of control.

In the case of CC[C@@]1(O)C[C@H](OC2CC(N(C)C)C(OC3CC(O)C(OC4CCC(=O)C(C)O4)C(C)O3)C(C)O2)c2c(cc3c(c2O)C(=O)c2c(O)ccc(O)c2C3=O)[C@H]1C(=O)OC (stereo not given in full), the T/C (dose: 0.25 mg/kg/injection, schedule: Q01DX009 (ip), vehicle: saline) is reported as 119 % of control, the T/C (dose: 0.25 mg/kg/injection, schedule: Q01DX009 (ip), vehicle: water) is reported as 110 % of control and the T/C (dose: 0.37 mg/kg/injection, schedule: Q01DX009 (ip), vehicle: saline) is reported as 102 % of control. The T/C (dose: 0.5 mg/kg/injection, schedule: Q01DX009 (ip), vehicle: saline) was 114 % of control, the T/C (dose: 0.5 mg/kg/injection, schedule: Q01DX009 (ip), vehicle: water) was 120 % of control and the T/C (dose: 0.75 mg/kg/injection, schedule: Q01DX009 (ip), vehicle: saline) was 113 % of control. For the same molecule, the T/C (dose: 0.75 mg/kg/injection, schedule: Q04DX003 (ip), vehicle: saline) was 91 % of control, the T/C (dose: 1.0 mg/kg/injection, schedule: Q01DX009 (ip), vehicle: saline) was 157 % of control and 168 % of control and the T/C (dose: 1.5 mg/kg/injection, schedule: Q01DX009 (ip), vehicle: saline) was 150 % of control. The T/C (dose: 1.5 mg/kg/injection, schedule: Q04DX003 (ip), vehicle: saline) was 91 % of control and 106 % of control, the T/C (dose: 2.0 mg/kg/injection, schedule: Q01DX009 (ip), vehicle: saline) was 107 % of control and the T/C (dose: 3.0 mg/kg/injection, schedule: Q04DX003 (ip), vehicle: saline) was 108 % of control and 115 % of control. For the same molecule, the T/C (dose: 3.6 mg/kg/injection, schedule: Q01DX001 (ip), vehicle: water) was 100 % of control and 102 % of control, the T/C (dose: 6.0 mg/kg/injection, schedule: Q01DX001 (ip), vehicle: water) was 92 % of control and 102 % of control and the T/C (dose: 6.0 mg/kg/injection, schedule: Q04DX003 (ip), vehicle: saline) was 88 % of control and 97 % of control. The T/C (dose: 10.0 mg/kg/injection, schedule: Q01DX001 (ip), vehicle: water) was 101 % of control and 102 % of control and the T/C (dose: 16.7 mg/kg/injection, schedule: Q01DX001 (ip), vehicle: water) was 106 % of control.

For CC[n+]1c(C)ccc2ccccc21, the T/C (dose: 25.0 mg/kg/injection, schedule: Q01DX009 (ip), vehicle: carboxymethylcellulose (CMC)) was 112 % of control and the T/C (dose: 50.0 mg/kg/injection, schedule: Q01DX009 (ip), vehicle: carboxymethylcellulose (CMC)) was 96 % of control.

With COc1cccc(C2CCN(C)C2)c1 (stereo not given) the T/C [9] was 89 % of control, the T/C (dose: 12.5 mg/kg/injection, schedule: Q01DX009 (ip), vehicle: Klucel (hydroxypropylcellulose) (HPC)) was 100 % of control and the T/C [10] was 100 % of control.

COc1ccccc1NC(=O)Nc1ccccc1OC was tested, and the T/C [2] was 89 % of control, the T/C [3] was 89 % of control and the T/C [5] was 88 % of control.

For Cc1cc(N(CCCl)CCCl)ccc1C=Nc1cccnc1, the T/C [7] was 119 % of control and the T/C [8] was 124 % of control.

In the case of N=P(N[P+](N)(c1ccccc1)c1ccccc1)(c1ccccc1)c1ccccc1, the T/C (dose: 1.56 mg/kg/injection, schedule: Q01DX009 (ip), vehicle: Klucel (hydroxypropylcellulose) (HPC)) is reported as 101 % of control, the T/C (dose: 3.12 mg/kg/injection, schedule: Q01DX009 (ip), vehicle: Klucel (hydroxypropylcellulose) (HPC)) is reported as 107 % of control and the T/C [9] is reported as 108 % of control.

For c1ccc(CN=C(c2ccccc2)c2ccccc2)cc1, the T/C [11] was 100 % of control, the T/C [12] was 95 % of control and the T/C [13] was 100 % of control.

Oc1ccccc1C(Nc1nc2ccccc2s1)c1ccc2cccnc2c1O (stereo not given) was tested, and the T/C [10] was 114 % of control, the T/C (dose: 50.0 mg/kg/injection, schedule: Q01DX009 (ip), vehicle: Klucel (hydroxypropylcellulose) (HPC)) was 105 % of control and 119 % of control (2×) and the T/C (dose: 75.0 mg/kg/injection, schedule: Q01DX009 (ip), vehicle: Klucel (hydroxypropylcellulose) (HPC)) was 107 % of control. For the same molecule, the T/C [2] was 110 % of control and 119 % of control, the T/C (dose: 150.0 mg/kg/injection, schedule: Q01DX009 (ip), vehicle: Klucel (hydroxypropylcellulose) (HPC)) was 97 % of control and the T/C [3] was 124 % of control. The T/C [5] was 152 % of control.

In the case of O=C(COc1ccc(Cl)cc1)Nc1cccc(C(F)(F)F)c1, the T/C (dose: 5.0 mg/kg/injection, schedule: Q01DX009 (ip), vehicle: Klucel (hydroxypropylcellulose) (HPC)) is reported as 117 % of control, the T/C (dose: 9.4 mg/kg/injection, schedule: Q01DX009 (ip), vehicle: saline with Tween-80) is reported as 93 % of control and the T/C (dose: 10.0 mg/kg/injection, schedule: Q01DX009 (ip), vehicle: Klucel (hydroxypropylcellulose) (HPC)) is reported as 101 % of control. For the same molecule, the T/C (dose: 37.5 mg/kg/injection, schedule: Q01DX009 (ip), vehicle: saline with Tween-80) was 90 % of control and 91 % of control.

In the case of Cc1cccc2c(Nc3ccc(NS(C)(=O)=O)cc3)c3ccc([N+](=O)[O-])cc3nc12, the T/C (dose: 8.0 mg/kg/injection, schedule: Q01DX009 (ip), vehicle: saline with Tween-80) is reported as 155 % of control and the T/C (dose: 12.0 mg/kg/injection, schedule: Q01DX009 (ip), vehicle: saline with Tween-80) is reported as 194 % of control.

With O=[As](O)(O)c1ccc(Nc2nc(Cl)nc(Cl)n2)cc1 the T/C (dose: 3.13 mg/kg/injection, schedule: Q01DX009 (ip), vehicle: Klucel (hydroxypropylcellulose) (HPC)) was 100 % of control and the T/C [9] was 110 % of control.

Cc1ccc(S(=O)(=O)NC(CSCc2ccccc2)C(=O)O)cc1 (stereo not given) was tested, and the T/C [7] was 92 % of control and the T/C [8] was 86 % of control.

In the case of CCC1CCCCC1=O (stereo not given), the T/C (dose: 44.0 mg/kg/injection, schedule: Q01DX009 (ip), vehicle: saline with Tween-80) is reported as 97 % of control, the T/C (dose: 67.0 mg/kg/injection, schedule: Q01DX009 (ip), vehicle: saline with Tween-80) is reported as 95 % of control and the T/C [8] is reported as 100 % of control. The T/C (dose: 150.0 mg/kg/injection, schedule: Q01DX009 (ip), vehicle: saline with Tween-80) was 102 % of control.

COC(=O)C1=CO[C@@H](C)[C@@H]2Cn3ccc4c5ccccc5nc-4c3C[C@H]12 was tested, and the T/C [6] was 94 % of control and the T/C [7] was 89 % of control.

For C[Si](C)(C)c1c(F)c(F)cc(F)c1F, the T/C [11] was 98 % of control, the T/C [12] was 97 % of control and the T/C [13] was 97 % of control.
